Source: patent publication US20220306585A1, “PYRAZOLE DERIVATIVES FOR CONTROLLING ARTHROPODS” (Bayer Animal Health GmbH, priority 2019, published 2022)
Converted amounts (≈) assume the structure as drawn. Blank lines part the entries; values can stand above or below the compound they belong to.

Columns and labels:
[1] = system: Dermacentor variabilis nymph; assay: Antiparasitic activity after administration to rats: ticks; format: in vivo; conditions: Dermacentor variabilis nymph; for In-vivo Efficacy SD2: study day 2; for In-vivo Efficacy SD9: study day 9; for In-vivo Efficacy SD16: study day 16; for In-vivo Efficacy SD23: study day 23; for In-vivo Efficacy SD30: study day 30; for In-vivo Efficacy SD37: study day 37; for In-vivo Efficacy SD42: study day 42
Description: (§1) Measurement of the Antiparasitic Activity after Administration of a Prodrug to Rats Compounds were dissolved in the appropriate volume of glycerol formal (p.a.) just before application to the animals (dose volume was adjusted to 0.03 mL/kg bodyweight). 5 rats per group were either injected intraperitoneally or subcutaneously. Rats were infested with 30 Dermacentor variabilis nymphs on study days −2, 7, 14, 21, 28, 35 and 30 adult Ctenocephalides fleas on study days −1, 8, 15, 22, 29, 36. Parasite counts were performed on study days 2, 9, 16, 23, 30, 37. Percent efficacy was calculated as arithmetic mean parasite numbers as life attached tick numbers and live flea numbers of the respective study group in comparison to parasite counts on a placebo-treated control group. Infestation of groups with less than 75% efficacy on two consecutive counting occasions will terminated for the respective parasite.

[2] = system: Ctenocephalides felis adult; assay: Antiparasitic activity after administration to rats: fleas; format: in vivo; conditions: Ctenocephalides felis adult; for In-vivo Efficacy SD2: study day 2; for In-vivo Efficacy SD9: study day 9; for In-vivo Efficacy SD16: study day 16; for In-vivo Efficacy SD23: study day 23; for In-vivo Efficacy SD30: study day 30; for In-vivo Efficacy SD37: study day 37; for In-vivo Efficacy SD42: study day 42
Description: as §1

[3] = Evaluation of pharmacokinetics in vivo (rat); conditions: concentration of Parent Drug A after admin. of the named substance
Description: (§2) Evaluation of Pharmacokinetics (In Vivo) To evaluate the pharmacokinetics of test substances in vivo, these test substances are dissolved in appropriate formulation vehicles (ethanol, dimethyl sulfoxide, PEG400, glycerol formal etc.), or mixtures thereof. The test substances are then administered to rats or dogs intravenously, orally or subcutaneously. The intravenous application is performed as bolus. Administered doses range usually between 0.1 to 5 mg/kg, however, doses for subcutaneous and oral administration can exceed this range up to doses of 30 mg/kg. Blood samples are retrieved via a catheter, exsanguination or venous puncture in vials containing appropriate anticoagulants, such as lithium heparinate or potassium EDTA. Plasma is generated from the blood via centrifugation. Blood samples are taken over an appropriate time interval, usually lasting up to 144 h after administration. If necessary, samples from later time points can also be taken. If possible, time points are chosen so that the initial absorption phase, the maximum plasma concentration (Cmax), and exposure within a certain time interval (AUC(0-t))aer described. Furthermore, it is possible to also retrieve organ-, tissue- and urine samples. The quantitative measurement of the test substances in the samples is performed using calibration curves in the respective matrices. The protein content of the samples is precipitated using acetonitrile or methanol. Thereafter, the samples are separated using HPLC in combination with reversed phase chromatography columns. The HPLC system is coupled to a triple quadrupole mass spectrometer via an electrospray interface. The evaluation of the plasma concentration/time profiles are afterwards evaluated using a validated pharmacokinetics evaluation program. […] Relative bioavailability (Frel) was used to describe the exposure of parent drug after prodrug administration compared to the exposure of parent drug after direct administration of compound A which was normalised to 100%.

[4] = Degradation of prodrugs and release of parent drug in rat plasma; format: in vitro ADME; conditions: male, Hannover-Janvier RjHan, rat plasma (Li-heparin), 37° C., percent area of prodrug at t0
Description: Measurement of Release of Parent Drug in Rat Plasma 1 mg of the test compound was dissolved in 0.5 mL acetonitrile/dimethylsulfoxide 9:1. For complete dissolution the HPLC vial was shaken and treated with ultrasound. 20 μL of this solution were added to 1 mL of rat plasma (Li-heparin plasma, Hannover-Janvier rat, RjHan male) with vortexing at a temperature of 37° C. Aliquots (100 μL each) were taken at 0.17, 0.5, 1, 1.5, 2 and 4 hours. Each aliquot was transferred to a vial containing 300 μL of acetonitrile/citric acid buffer pH 3 8:2. These solutions were centrifuged at 5000 rpm for 10 minutes. The supernatant was analysed by HPLC (Method 8) to determine the amount of the test compound. In addition, the reaction mixture was analysed by method 9 (HPLC-MS) at the final timepoint. Both decrease of the prodrug concentration and increase of parent drug concentration were monitored. All data is given as percent area of the prodrug at to.

[5] = Measurement of stability of prodrugs in buffer at pH 7.4; format: physicochemical; conditions: PBS buffer pH 7.4, 37° C., HPLC peak area, read-out: % Recovery after 24 h (stability at pH 7.4)
Description: Preparation of the PBS buffer solution pH 7.4: 90 g sodium chloride, 13.61 g potassium dihydrogen phosphate, 83.35 g 1M aqueous sodium hydroxide were dissolved in water. More water was added up to a total volume of 1 L. This solution was diluted 1:10 with water. Eventually, pH was adjusted to pH 7.4 by the addition of phosphoric acid.
Measurement of Stability of Prodrugs in Buffer at pH 7.4
0.15 mg of the test compound were dissolved in 0.1 mL dimethylsulfoxide and 0.4 mL acetonitrile. For complete dissolution, the HPLC vial with the sample solution was shaken and treated with ultrasound. Then, 1.0 mL of PBS buffer solution pH 7.4 was added and the sample was vortexed. The sample solution was analysed by HPLC (method 8) to determine the amount of the test compound at a particular time over a period of 24 h at 37° C. The peak areas, given as percentage of total area, are used for quantification. In addition, the reaction mixture was analysed by method 9 (HPLC-MS) at the final timepoint.

[6] = Measurement of solubility in buffer at pH 6.5; format: physicochemical; conditions: aqueous buffer, kinetic from dmso stock; PBS buffer pH 6.5, shaken 24 h at rt, LC-MSMS; read-out: Solubility of example compounds at pH 6.5
Description: Measurement of Solubility in Buffer at pH 6.5 2-4 mg of the test compound are dissolved in DMSO to reach a concentration of 50 g/L (solution A). To 10 μL of this solution 960 μL PBS buffer pH 6.5 are added (final concentration: […]); the mixture is shaken for 24 h at rt in a 96 well plate. An aliquot is centrifuged at 42000 rpm für 30 min. The supernatant is diluted with acetonitrile/water (8:2) 1:10 and 1:1000 resp. This diluted samples are analyzed by LC-MSMS. Calibration: 10 μL of solution A are diluted with 823 μL DMSO (final concentration: 600 μg/mL), which is further diluted with acetonitrile/water 8:2 by a factor of 100 (provides solution B). The calibration curve is obtained from solution B by further diluting with acetonitrile/water 8:2 with target concentrations of 1.2-12-60-600 ng/mL and injecting these four solutions for MS measurement. PBS-Puffer: 6.18 g sodium chloride and 3.96 g sodium dihydrogen phosphate are dissolved in 1 L aqua dist., the pH is adjusted to 6.5 with IN sodium hydroxide.

[7] = Evaluation of pharmacokinetics in vivo (dog)
Description: as §2

- AUC(0-144 h)norm of parent drug A ([3]; iv bolus): 12 kg·h/L
- AUC(0-144 h)norm of parent drug A ([3]; sc): 6.7 kg·h/L
- recovery at 0.17 h, 39 µg/mL [4]: 96%
- recovery at 0.5 h, 39 µg/mL [4]: 95%
- recovery at 1 h, 39 µg/mL [4]: 93%
- recovery at 1.5 h, 39 µg/mL [4]: 92%
- recovery at 2 h, 39 µg/mL [4]: 90%
- recovery at 4 h, 39 µg/mL [4]: 86%
- recovery at 24 h, 0.1 mg/mL [5]: 95%
- solubility at 24 h [6]: 12 µg/mL (≈ 15.4 µM)
Structure (SMILES): N#CC1(N(COC(=O)CCC(=O)O)C(=O)c2cc(-c3cnn(-c4c(Cl)cc(C(F)(C(F)(F)F)C(F)(F)F)cc4OC(F)(F)F)c3)ccc2Cl)CC1 [Example 8, 4-{[(2-Chloro-5-{1-[2-chloro-4-(1,1,1,2,3,3,3-heptafluoropropan-2-yl)-6-(trifluoromethoxy)phenyl]-1H-pyrazol-4-yl}benzoyl)(1-cyanocyclopropyl)amino]methoxy}-4-oxobutanoic acid]
- In-vivo Efficacy SD2 ([1]; 12.00 mg/kg sc): 100%
- In-vivo Efficacy SD9 ([1]; 12.00 mg/kg sc): 100%
- In-vivo Efficacy SD16 ([1]; 12.00 mg/kg sc): 99%
- In-vivo Efficacy SD23 ([1]; 12.00 mg/kg sc): 100%
- In-vivo Efficacy SD30 ([1]; 12.00 mg/kg sc): 100%
- In-vivo Efficacy SD37 ([1]; 12.00 mg/kg sc): 100%
- In-vivo Efficacy SD42 ([1]; 12.00 mg/kg sc): 92%
- In-vivo Efficacy SD2 ([2]; 12.00 mg/kg sc): 100%
- In-vivo Efficacy SD9 ([2]; 12.00 mg/kg sc): 99%
- In-vivo Efficacy SD16 ([2]; 12.00 mg/kg sc): 100%
- In-vivo Efficacy SD23 ([2]; 12.00 mg/kg sc): 100%
- In-vivo Efficacy SD30 ([2]; 12.00 mg/kg sc): 97%
- In-vivo Efficacy SD37 ([2]; 12.00 mg/kg sc): 88%
- In-vivo Efficacy SD42 ([2]; 12.00 mg/kg sc): 78%

- AUC(0-144 h)norm of parent drug A ([3]; iv bolus): 11 kg·h/L
- AUC(0-144 h)norm of parent drug A ([3]; sc): 1.7 kg·h/L
- AUC(0-72 h)norm of parent drug A ([7]; iv bolus, concentration of Parent Drug A after admin. of the named substance): 6.0 kg·h/L
- bioavailability ([7]; plasma, sc, calculated based on AUC(0-t)norm, parent drug A normalised to 100%, read-out: Frel (relative bioavailability)): 100%
- AUC(0-384 h)norm of parent drug A ([7]; sc, concentration of Parent Drug A after admin. of the named substance): 1.0 kg·h/L
Structure (SMILES): N#CC1(NC(=O)c2cc(-c3cnn(-c4c(Cl)cc(C(F)(C(F)(F)F)C(F)(F)F)cc4OC(F)(F)F)c3)ccc2Cl)CC1 [Parent Drug A, 2-Chlor-5-{1-[2-chlor-4-(1,1,1,2,3,3,3-heptafluorpropan-2-yl)-6-(trifluormethoxy)phenyl]-1H-pyrazol-4-yl}-N-(1-cyanocyclopropyl)benzamide, reference compound]
- In-vivo Efficacy SD2 ([1]; 10 mg/kg ip): 96%
- In-vivo Efficacy SD9 ([1]; 10 mg/kg ip): 87%
- In-vivo Efficacy SD16 ([1]; 10 mg/kg ip): 83%
- In-vivo Efficacy SD23 ([1]; 10 mg/kg ip): 93%
- In-vivo Efficacy SD30 ([1]; 10 mg/kg ip): 53%
- In-vivo Efficacy SD37 ([1]; 10 mg/kg ip): 32%
- In-vivo Efficacy SD2 ([1]; 10 mg/kg sc): 72%
- In-vivo Efficacy SD9 ([1]; 10 mg/kg sc): 61%
- In-vivo Efficacy SD2 ([2]; 10 mg/kg ip): 84%
- In-vivo Efficacy SD9 ([2]; 10 mg/kg ip): 68%
- In-vivo Efficacy SD16 ([2]; 10 mg/kg ip): 71%
- In-vivo Efficacy SD2 ([2]; 10 mg/kg sc): 53%
- In-vivo Efficacy SD9 ([2]; 10 mg/kg sc): 44%

- recovery at 0.17 h, 39 µg/mL [4]: 94%
- recovery at 0.5 h, 39 µg/mL [4]: 81%
- recovery at 1 h, 39 µg/mL [4]: 62%
- recovery at 1.5 h, 39 µg/mL [4]: 47%
- recovery at 2 h, 39 µg/mL [4]: 36%
- recovery at 4 h, 39 µg/mL [4]: 10%
- recovery at 24 h, 0.1 mg/mL [5]: 100%
- solubility at 24 h [6]: 5 µg/mL (≈ 5.94 µM)
Structure (SMILES): N#CC1(N(COC(=O)Cc2ccc(C(=O)O)cc2)C(=O)c2cc(-c3cnn(-c4c(Cl)cc(C(F)(C(F)(F)F)C(F)(F)F)cc4OC(F)(F)F)c3)ccc2Cl)CC1 [Example 15, 4-(2-{[(2-Chloro-5-{1-[2-chloro-4-(1,1,1,2,3,3,3-heptafluoropropan-2-yl)-6-(trifluoromethoxy)phenyl]-1H-pyrazol-4-yl}benzoyl)(1-cyanocyclopropyl)amino]methoxy}-2-oxoethyl)benzoic acid]
- In-vivo Efficacy SD2 ([1]; 12.96 mg/kg sc): 100%
- In-vivo Efficacy SD9 ([1]; 12.96 mg/kg sc): 100%
- In-vivo Efficacy SD16 ([1]; 12.96 mg/kg sc): 100%
- In-vivo Efficacy SD23 ([1]; 12.96 mg/kg sc): 100%
- In-vivo Efficacy SD30 ([1]; 12.96 mg/kg sc): 100%
- In-vivo Efficacy SD37 ([1]; 12.96 mg/kg sc): 100%
- In-vivo Efficacy SD42 ([1]; 12.96 mg/kg sc): 96%
- In-vivo Efficacy SD2 ([2]; 12.96 mg/kg sc): 100%
- In-vivo Efficacy SD9 ([2]; 12.96 mg/kg sc): 100%
- In-vivo Efficacy SD16 ([2]; 12.96 mg/kg sc): 100%
- In-vivo Efficacy SD23 ([2]; 12.96 mg/kg sc): 99%
- In-vivo Efficacy SD30 ([2]; 12.96 mg/kg sc): 96%
- In-vivo Efficacy SD37 ([2]; 12.96 mg/kg sc): 81%
- In-vivo Efficacy SD42 ([2]; 12.96 mg/kg sc): 75%
